These results are taken from the supplement of paper PMC10307832.

Common to all, as to test: relative viability (nuclei count vs DMSO), 5 days (fraction); higher = more cells survive
Compound in the experiment “Doxorubicin + Lapatinib”: COc1cccc2c1C(=O)c1c(O)c3c(c(O)c1C2=O)C[C@@](O)(C(=O)CO)C[C@@H]3O[C@H]1C[C@H](N)[C@H](O)[C@H](C)O1 [Doxorubicin] + CS(=O)(=O)CCNCc1ccc(-c2ccc3ncnc(Nc4ccc(OCc5cccc(F)c5)c(Cl)c4)c3c2)o1 [Lapatinib] (partner 2 µM)
The gist of the method: (§1)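 Lung cancer cell lines were seeded in 1536-well plates and dosed by pin tool the next day, with either a single drug or a fixed anchor-drug dose combined with five library-drug doses (not always all listed) spaced in √10 steps. Five days later, one step fixed the cells and stained their nuclei (final 0.05% Triton X-100, 1% formaldehyde, 1 ug/ml Hoechst), and nuclei were counted on 4× images. Relative viability is the nuclei count in treated wells divided by the count in vehicle wells, and each value is the median of duplicate plates.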

Compound in the experiment “Doxorubicin + Foretinib”: COc1cccc2c1C(=O)c1c(O)c3c(c(O)c1C2=O)C[C@@](O)(C(=O)CO)C[C@@H]3O[C@H]1C[C@H](N)[C@H](O)[C@H](C)O1 [Doxorubicin] + COc1cc2c(Oc3ccc(NC(=O)C4(C(=O)Nc5ccc(F)cc5)CC4)cc3F)ccnc2cc1OCCCN1CCOCC1 [Foretinib] (partner 0.25 µM)
A digest of the protocol: as §1

Compound in the experiment “Doxorubicin + Vorinostat”: COc1cccc2c1C(=O)c1c(O)c3c(c(O)c1C2=O)C[C@@](O)(C(=O)CO)C[C@@H]3O[C@H]1C[C@H](N)[C@H](O)[C@H](C)O1 [Doxorubicin] + O=C(CCCCCCC(=O)Nc1ccccc1)NO [Vorinostat] (partner 1 µM)
A digest of the protocol: as §1

Compound in the experiment “BAY61-3606 + Pictilisib”: COC1=C(C=C(C=C1)C2=CC3=NC=CN3C(=N2)NC4=C(C=CC=N4)C(=O)N)OC [BAY61-3606] + CS(=O)(=O)N1CCN(Cc2cc3nc(-c4cccc5[nH]ncc45)nc(N4CCOCC4)c3s2)CC1 [Pictilisib] (partner 1 µM)
The gist of the method: as §1

As for UMC-11, the relative viability in the experiment with Doxorubicin + Lapatinib (first compound 0.001 µM) was 1.22; with Doxorubicin + Lapatinib (first compound 0.003162 µM), 1.13; with Doxorubicin + Lapatinib (first compound 0.01 µM) it was 0.906; in the experiment with Doxorubicin + Lapatinib (first compound 0.03162 µM), 0.514; with Doxorubicin + Lapatinib (first compound 0.1 µM), 0.456; in the experiment with Doxorubicin + Foretinib (first compound 0.001 µM) it was 0.963. In addition, the relative viability in the experiment with Doxorubicin + Foretinib (first compound 0.003162 µM) was found to be 1.02; with Doxorubicin + Foretinib (first compound 0.01 µM), 1.02; in the experiment with Doxorubicin + Foretinib (first compound 0.03162 µM), 0.685; in the experiment with Doxorubicin + Foretinib (first compound 0.1 µM), 0.644; with Doxorubicin + Vorinostat (first compound 0.001 µM), 0.52; with Doxorubicin + Vorinostat (first compound 0.003162 µM), 0.354. Also, the relative viability was determined as 0.432 with Doxorubicin + Vorinostat (first compound 0.01 µM); 0.329 with Doxorubicin + Vorinostat (first compound 0.03162 µM); 0.37 with Doxorubicin + Vorinostat (first compound 0.1 µM); 0.851 with BAY61-3606 + Pictilisib (first compound 0.02 µM); 0.799 with BAY61-3606 + Pictilisib (first compound 0.06325 µM); 0.527 with BAY61-3606 + Pictilisib (first compound 0.2 µM). The relative viability with BAY61-3606 + Pictilisib (first compound 0.6325 µM) was found to be 0.922; with BAY61-3606 + Pictilisib (first compound 2 µM) it was 0.622.
